Measured values as given in patent publication US20150056702A1, “METHOD AND KIT FOR CULTURING STEM CELLS” (China Medical University, priority 2013, published 2015).

Experiments:
Type in all cases: cell-based, mouse
[1] = test system: Stat3; test: Real-time PCR, Stat3 mRNA in ES cells; conditions: for Stat3 Gene expression level: ES cells, control group = 100%
Experimental: (§1) An experimental group medium (BP5, BP10, BP20 or BP40) and a control group medium (without BP) were added respectively to perform the following steps. ES cells were cultured with an initial density of 1×10^4 per well in a 6-well culture dish. The medium was removed until the cells growth to be about 70 to 80% confluence, and then 1 ml TRIzol (Invitrogen) was added into each well. The cells were incubated for 5 minutes, and then was scraped by a spatula and placed into a 1.5 ml microtube to be lysed adequately. Chloroform (0.2 ml) was added into the microtubes. The mixture was shaken up and down for 15 seconds, and then incubated at room temperature for 2 to 3 minutes. Thereafter, the mixture was centrifuged at 12000 rpm at 4° C. for 15 minutes, and the supernatant was removed into another 1.5 ml microtube and isopropanol (0.5 ml) was added into the microtube with well mixing. The mixture was incubated at room temperature for 10 minutes and then centrifuged at 12000 rpm at 4° C. for 10 minutes. The supernatant was then removed. One ml of 70% ethanol containing DEPC.H2O was used to wash the remaining sediment. The sediment was centrifuged at 7500 rpm at 4° C. for 5 minutes. The supernatant was removed. The sediment was dried by vacuum suction. The dried samples were dissolved in about 0.01 to 0.02 ml of DEPC.H2O to obtain the experimental group RNA and control group RNA. Both groups were stored at −80° C.
(§2) The OD value of RNA samples in both groups obtained from the above Experiment I were measured at a wavelength of 260 nm (RNA: OD260=1 for a 40 μg/mL solution). Each RNA sample (2 μl) was added with RNA-free water until the volume of the sample reached 10 μl. Two μl oligo (dT) (100 μg/ml) was added into each sample, and the samples were incubated at 65° C. for 5 minutes. Then, the samples were immediately placed on ice and spun down. Next, 6.5 μl of a reaction solution [4 μl of 5× buffer+1 μl of 0.1 M DTT+1 μl of RNase out+0.5 μl of SSIII (Invitrogen)] was added into each of the samples, and the samples were incubated at 50° C. for about 30 to 60 minutes and at 75° C. for 15 minutes to obtain the experimental group cDNA and control group cDNA. Both groups were stored at −80° C.
(§3) This experiment was used to detect the expression levels of ES cell-related genes, i.e., Oct4 and Sox2, etc. First, 4 μl of the experimental group cDNA or control group cDNA was added into each well of a 96-well micro-reaction plate, and mixed with 6 μl of a reaction solution [0.5 μl of 6 μM forward primer+0.5 μl of 6 μM reverse primer+5 μl of SYBR Green PCR Master mix (Roche)], wherein the SYBR Green PCR Master mix included the reagents needed for Q-PCR, such as dNTPs, MgCl, Taq DNA polymerase and 2×SYBR® Green I solution. […] The cycle threshold (CT) values were measured. […]

[2] = test system: IL11; test: Real-time PCR, cytokine gene IL11 in ES cells; conditions: for IL11 mRNA expression level: ES cells, control group = 100%
Experimental: as §1, §2, §3

[3] = test system: SSEA1; test: Immunofluorescence staining, SSEA1 in ES cells; conditions: for SSEA1 expression level: ES cells, 72 hours, control group = 100%
Excerpt: (§4) Nanog and SSEA1 are also marker proteins of stem cells, and their expression levels could be measured by immunofluorescence staining to further confirm whether BP can effectively maintain the self-renewal and pluripotency of stem cells.
(§5) An experimental group medium (BP5, BP10, BP20 or BP40), a LIF-containing medium (without BP), and a control group medium (without BP) were used respectively in a 6-well culture dish which comprises a slide in each well to culture ES cells with an initial density of 1×10^4 per well for 72 hours. The medium was removed and the cells were washed with PBS. Next, PBS was removed, and then 4% paraformaldehyde was added to perform the fixation at room temperature for 10 minutes. Next, paraformaldehyde was removed, and then slides were washed with 0.1% Tween-20/1X PBS three times for 10 minutes each time. The 0.3% Tween-20/1X PBS was added and held at room temperature for 30 minutes to penetrate the cell membrane to benefit the dye entry. After the slides were washed three times with 0.1% Tween-20, 5% FBS/1×PBS was added to perform a blocking reaction at room temperature for 2 hours, and then reacting with the primary antibody [anti-Nanog (Novus) or anti-SSEA1 (Millipore)] at a dilution of 1:100 at room temperature overnight. Slides were then washed 5 times with 0.1% Tween-20, then reacting with the secondary antibody [FITC-conjugated anti-mouse IgG or TRITC-conjugated anti-rabbit IgG (Sigma-Aldrich)] at a dilution of 1:500. After washed with 0.1% Tween-20 for 10 minutes, slides were mounted with the DAPI-containing UltraCruz™ Mounting medium and observed using an inverted fluorescent microscope.

[4] = test system: LIF; test: Real-time PCR, cytokine gene LIF in ES cells; conditions: for LIF mRNA expression level: ES cells, control group = 100%
Experimental: as §1, §2, §3

[5] = test system: OSM; test: Real-time PCR, cytokine gene OSM in ES cells; conditions: for Osm mRNA expression level: ES cells, control group = 100%
Experimental: as §1, §2, §3

[6] = test system: SSEA1; test: Immunofluorescence staining, SSEA1 in iPS cells; conditions: 72 hours, control group = 100%
Excerpt: as §4, §5
By using the above culture conditions, an experimental group medium (BP5, BP10, BP20 or BP40), a LIF-containing medium (without BP), and a control group medium (without BP) were used respectively to culture iPS cells. The staining of iPS cells was performed by using the steps described above.

[7] = test system: EGF; test: Real-time PCR, cytokine gene EGF in ES cells; conditions: for EGF mRNA expression level: ES cells, control group = 100%
Experimental: as §1, §2, §3

[8] = BP10 medium (about 10 μg BP/ml)
[9] = BP-containing ES cell medium, result in words
[10] = BP20 medium (about 20 μg BP/ml)
[11] = BP40 medium (about 40 μg BP/ml)
[12] = LIF-containing medium (LIF 4 ng/ml, without BP)
[13] = LIF-containing medium (LIF 4 ng/ml)

## CCCC=C1OC(=O)c2ccccc21 [BP, n-butylidenephthalide]
[1]; BP5 medium (about 5 μg BP/ml)
  Stat3 Gene expression level: 169%
[1]; [8]
  Stat3 Gene expression level: 151%
[1]; BP-containing ES cell medium (BP5 or BP10), result in words
  mRNA expression level of Stat3: significantly up-regulated
[2]; BP5 medium (about 5 μg BP/ml)
  IL11 mRNA expression level: 93%
[2]; [8]
  IL11 mRNA expression level: 191%
[2]; [9]
  mRNA expression level of IL-11: significantly up-regulated
[3]; BP5 medium (about 5 μg BP/ml)
  SSEA1 expression level: 76.27%
[3]; [8]
  SSEA1 expression level: 202.82%
[3]; [10]
  SSEA1 expression level: 172.12%
[3]; [11]
  SSEA1 expression level: 145.71%
[3]; BP-containing ES cell medium vs control group (without BP), result in words
  expression level of SSEA1: higher
[4]; BP5 medium (about 5 μg BP/ml)
  LIF mRNA expression level: 113%
[4]; [8]
  LIF mRNA expression level: 184%
[4]; [9]
  mRNA expression level of LIF: significantly up-regulated
[5]; BP5 medium (about 5 μg BP/ml)
  Osm mRNA expression level: 109%
[5]; [8]
  Osm mRNA expression level: 246%
[5]; [9]
  mRNA expression level of OSM: significantly up-regulated
[6]; BP5 medium (about 5 μg BP/ml)
  SSEA1 expression level: 117%
[6]; [8]
  SSEA1 expression level: 101%
[6]; [10]
  SSEA1 expression level: 94%
[6]; [11]
  SSEA1 expression level: 137%
[7]; BP5 medium (about 5 μg BP/ml)
  EGF mRNA expression level: 110%
[7]; [8]
  EGF mRNA expression level: 204%
[7]; [9]
  mRNA expression level of EGF: significantly up-regulated

## LIF: multifunctional cell factor used to maintain pluripotency of stem cells; LIF-containing medium (4 ng/ml, without BP) as comparison
[1]; [12]
  Stat3 Gene expression level: 194%
[2]; [13]
  IL11 mRNA expression level: 99%
[3]; [12]
  SSEA1 expression level: 242.01%
[4]; [13]
  LIF mRNA expression level: 81%
[5]; [13]
  Osm mRNA expression level: 128%
[6]; [12]
  SSEA1 expression level: 230%
[7]; [13]
  EGF mRNA expression level: 145%
